One compound from publication PMC7045694 (ACS Nano, 2020) can be followed below.

The target of this test is T1, LBP (leucine-binding protein) (Escherichia coli, UniProt P04816).
T1 sequence (P04816 24-369): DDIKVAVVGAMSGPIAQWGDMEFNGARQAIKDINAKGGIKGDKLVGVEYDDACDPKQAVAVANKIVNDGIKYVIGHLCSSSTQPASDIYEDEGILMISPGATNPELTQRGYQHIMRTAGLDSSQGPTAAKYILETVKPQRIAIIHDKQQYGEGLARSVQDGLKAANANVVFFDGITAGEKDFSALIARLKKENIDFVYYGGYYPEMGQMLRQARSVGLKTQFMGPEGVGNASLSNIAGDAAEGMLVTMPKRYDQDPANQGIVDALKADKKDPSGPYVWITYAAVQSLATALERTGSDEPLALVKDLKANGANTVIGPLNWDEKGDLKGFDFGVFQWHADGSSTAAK

A word on the Kd: it is the concentration at which binding is half-saturated. A low value points to tighter binding. `CC(C)C[C@H](N)C(=O)O` [leucine] yielded a Kd of 86 ± 19 nM.
